Test results: patent US10716759B2, “Rehydration of micronized tecovirimat monohydrate” (SIGA TECHNOLOGIES, INC., priority 2013, dated 2020)

What was measured:
[1] = intravenous administration; cited from earlier work
[2] = in vivo; cited from earlier work
authentic variola virus = details: cited from earlier work
[3] = Moisture content by Karl Fischer method; assay type: physicochemical; details: Tray rehydration (18 hours bench top, 2 hours 25° C./60% RH or 2 hours 40° C./75% RH)

SMILES | Nephrotoxicity [1] | Bioavailability [2] | Variola virus replication (authentic variola virus) | Moisture (% w/w KF) [3]
Nc1ccn(C[C@@H](CO)OCP(=O)(O)O)c(=O)n1 [Cidofovir, (S)-1-(3-hydroxy-2-phosphonylmethoxypropyl)cytosine] | dose-limiting nephrotoxicity | poorly bioavailable | inhibit authentic variola virus replication | –
O=C(NN1C(=O)[C@@H]2[C@@H]3C=C[C@@H]([C@H]4C[C@@H]34)[C@@H]2C1=O)c1ccc(C(F)(F)F)cc1 [ST-246, N-[(3aR,4R,4aR,5aS,6S,6aS)-3,3a,4,4a,5,5a,6,6a-octahydro-1,3-dioxo-4,6-ethenocycloprop[f]isoindol-2(1H)-yl]-4-(trifluoromethyl)-benzamide] | – | – | – | ~4.5 % w/w
